Test system: Klebsiella pneumoniae (KPN) isolates
Test: MIC of compounds alone and combined with antibacterials, broth microdilution (CLSI)
Type: cell-based
Method in brief: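 Broth microdilution in cation-adjusted Mueller-Hinton broth, inoculum 5.10^5 CFU/mL, 16-20 h at 35° C in ambient air, on genotyped isolates. Compound MIC, alone or with an antibacterial, taken visually as lowest concentration preventing growth; antibacterial MIC determined at each compound concentration.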

C=CC1=C(C(=O)O)N2C(=O)[C@@H](NC(=O)/C(=N\OCC(=O)O)c3csc(N)n3)[C@H]2SC1 [FIX, Cefixime]
<0.25 µg/mL: MIC ATB in combination (KPN UFR216, AF2 @ 8 μg/mL) | MIC ATB in combination (KPN UFR216, AF3 @ 8 μg/mL) | MIC ATB in combination (KPN UFR217, AF2 @ 8 μg/mL) | MIC ATB in combination (KPN UFR217, AF3 @ 8 μg/mL) | MIC ATB in combination (KPN UFR218, AF2 @ 8 μg/mL) | MIC ATB in combination (KPN UFR218, AF3 @ 8 μg/mL) | MIC ATB in combination (KPN UFR220, AF2 @ 8 μg/mL) | MIC ATB in combination (KPN UFR220, AF3 @ 8 μg/mL) | MIC ATB in combination (KPN UFR221, AF2 @ 8 μg/mL) | MIC ATB in combination (KPN UFR221, AF3 @ 8 μg/mL) | MIC ATB in combination (KPN UFR222, AF2 @ 8 μg/mL) | MIC ATB in combination (KPN UFR222, AF3 @ 8 μg/mL)
64 µg/mL: MIC (strain KPN 200327, genotype TEM-1, SHV-1, CTX-M-15, OXA-1)
>128 µg/mL: MIC ATB in combination (KPN UFR81, CLA @ 4 μg/mL) | MIC ATB in combination (KPN UFR220, CLA @ 4 μg/mL) | MIC ATB in combination (KPN UFR222, CLA @ 4 μg/mL) | MIC ATB in combination (KPN UFR227O, CLA @ 4 μg/mL) | MIC (strain KPN 110376, compound alone) | MIC (strain KPN 110376, genotype TEM-1, SHV-1, CTX-M-15, OXA-1, OXA-48) | MIC (strain KPN 121206, genotype SHV-1, NDM-1) | MIC (strain KPN 131119, compound alone) | MIC (strain KPN 131119, genotype TEM-1, SHV-11, CTX-M-15, OXA-1, OXA-48) | MIC (strain KPN 140347, genotype CTX-M-15, NDM-1, antibiotic alone) | MIC ATB in combination (strain KPN 140347, with AF2 @ 8 μg/mL) | MIC ATB in combination (strain KPN 140347, with AF3 @ 8 μg/mL) | MIC ATB in combination (strain KPN 140347, with CLA @ 4 μg/mL) | MIC (strain KPN 140513, genotype TEM-1, SHV-11, CTX-M-15, KPC-3) | MIC (strain KPN 160143, genotype TEM-1, SHV-1, CTX-M-15, KPC-2, OXA-1) | MIC (strain KPN 190128, genotype TEM-1, SHV-32, CTX-M-15, OXA-1) | MIC (strain KPN 190270, compound alone) | MIC (strain KPN 190270, genotype TEM-1, SHV-76, CTX-M-15, OXA-1) | MIC (strain KPN 190425, genotype TEM-1, SHV-1, CTX-M-15, OXA-1) | MIC (strain KPN 190551, genotype TEM-1, SHV-1, CTX-M-15, OXA-1) | MIC (strain KPN 200047, genotype TEM-1, SHV-32, CTX-M-15, OXA-1) | MIC (strain KPN 260251, genotype TEM-1, SHV-11, SHV-12, CTX-M-15, KPC-2) | MIC (strain KPN 260252, genotype TEM-1, SHV-11, KPC-3) | MIC (strain KPN 260376, genotype SHV-1, SHV-49, OXA-1) | MIC (strain KPN 270077, genotype TEM-1, SHV-1, CTX-M-15) | MIC (strain KPN ARA, genotype TEM-1, SHV-11, CTX-M-15, OXA-1, OXA-48) | MIC (strain KPN BAA-1898, genotype TEM-1, SHV-11, SHV-12, KPC-2) | MIC (strain KPN UFR24, genotype TEM-1, SHV-2, SHV-11, OXA-1, OXA-48, OXA-47) | MIC (strain KPN UFR25, compound alone) | MIC (strain KPN UFR25, genotype TEM-1, SHV-11, CTX-M-15, OXA-162) | MIC (strain KPN UFR27, genotype TEM-1, SHV-28, CTX-M-15, OXA-204)
16 µg/mL: MIC ATB in combination (KPN UFR227O, AF3 @ 8 μg/mL) | MIC (strain KPN 700603, genotype SHV-18, OXA-2)
<=0.25 μg/mL: MIC ATB in combination (KPN UFR215, AF2 @ 8 μg/mL) | MIC ATB in combination (KPN UFR215, AF3 @ 8 μg/mL) | MIC ATB in combination (KPN UFR216, CLA @ 4 μg/mL) | MIC ATB in combination (KPN UFR217, CLA @ 4 μg/mL) | MIC ATB in combination (KPN UFR219, AF3 @ 8 μg/mL) | MIC (strain KPN LIB, genotype SHV-11, OXA-48) | MIC (strain KPN UFR22_O, genotype TEM-1, SHV-1, OXA-48) | MIC (strain KPN UFR23, genotype TEM-1, SHV-1, OXA-48)
128 µg/mL: MIC ATB in combination (KPN UFR221, CLA @ 4 μg/mL)
0.5 µg/mL: MIC ATB in combination (KPN UFR219, AF2 @ 8 μg/mL) | MIC ATB in combination (KPN UFR219, CLA @ 4 μg/mL)
8 µg/mL: MIC ATB in combination (KPN UFR227O, AF2 @ 8 μg/mL) | MIC (strain KPN 6299, genotype TEM-1, SHV-11, OXA-163)
1 µg/mL: MIC ATB in combination (KPN UFR215, CLA @ 4 μg/mL) | MIC ATB in combination (KPN UFR218, CLA @ 4 μg/mL)
